Consider 4 molecules from paper PMC6366710, “The structural basis of unique substrate recognition by Plasmodium thymidylate kinase: Molecular dynamics simulation and inhibitory studies” (PLoS ONE, 2019).

For the assay, the target named is T1, PfTMK (Plasmodium falciparum thymidylate kinase) (Plasmodium falciparum, UniProt Q8I4S1).
T1 construct: gene TMK; natural dimer
T1 sequence (Q8I4S1 1-210): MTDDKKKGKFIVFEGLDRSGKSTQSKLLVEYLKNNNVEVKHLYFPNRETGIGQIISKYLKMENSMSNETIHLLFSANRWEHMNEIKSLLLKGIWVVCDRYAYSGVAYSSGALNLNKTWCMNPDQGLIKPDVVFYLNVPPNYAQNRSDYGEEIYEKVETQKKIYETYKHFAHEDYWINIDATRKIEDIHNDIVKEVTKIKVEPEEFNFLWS
As to the kind of experiment: NADH-coupled (pyruvate kinase/lactate dehydrogenase) spectrophotometric TMP kinase assay, initial rates. Type of assay: biochemical. From the text: NADH-coupled (pyruvate kinase/lactate dehydrogenase) spectrophotometric TMP kinase assay, initial rates on PfTMK (Plasmodium falciparum thymidylate kinase)
The Ki is a dissociation constant, usually derived from enzyme kinetics or from competition with a known ligand. The low end stands for a stronger hold on the target, the high end for a looser hold on the target. In turn, `Nc1nc2c(nc(O)n2[C@H]2C[C@H](O)[C@@H](CO)O2)c(=O)[nH]1` [8-Hydroxy-2'-deoxyguanosine] returned a Ki of 180 µM.

On to `Nc1ncn([C@H]2C[C@H](OP(=O)(O)OC[C@H]3O[C@@H](n4cnc5c(=O)[nH]c(N)nc54)C[C@@H]3O)[C@@H](CO)O2)c(=O)n1` [Guadecitabine], for which the affinity corresponds to a Ki of 90 µM.

Turning to `Nc1nc2c(ncn2[C@@H]2O[C@H](COP(=O)(O)OP(=O)(O)O[C@H]3O[C@H](CO)[C@@H](O)[C@H](O)[C@@H]3O)[C@@H](O)[C@H]2O)c(=O)[nH]1` [Guanosine diphosphate mannose], the inhibition constant Ki was greater than 1000 µM.

Take `Nc1nc2c(ncn2[C@H]2C[C@H](O)[C@@H](CO)O2)c(=O)[nH]1` [deoxyguanosine]: the affinity, expressed as Ki, was 270 µM.
